Test results taken from doi:10.1101/2024.08.25.609621 (bioRxiv, 2024).
Where two headings read alike, the source gives them in different places.

Tests used:
[1] = target: SARS-CoV-2 NSP3 macrodomain (Mac1), P43 crystal form (Severe acute respiratory syndrome coronavirus 2, UniProt P0DTD1); format: binding
[2] = target: SARS-CoV-2 NSP3 macrodomain (Mac1) (Severe acute respiratory syndrome coronavirus 2, UniProt P0DTD1); experiment: biochemical; format: binding
[3] = ligand modeling in Mac1 crystal structure
[4] = dose-response, read-out: SARS CoV-2 macrodomain HTRF assay: IC50
[5] = dose-response, read-out: SARS CoV-2 macrodomain HTRF assay: Ki
[6] = from SARS CoV-2 macrodomain HTRF assay
[7] = stereoisomer(s) modeled in Mac1 crystal structure
[8] = ligand modeling in Mac1 crystal soak
[9] = Single dose, 200 μM, mean of three technical replicates, read-out: Average % competition
[10] = preliminary screen, compound at 200 μM, mean of 3-4 technical replicates, read-out: % competition in HTRF assay
[11] = stereoisomer(s) of ligand modeled in Mac1 crystal structure
[12] = SARS CoV-2 macrodomain HTRF assay
[13] = SARS CoV-2 macrodomain HTRF assay, read-out: Ki
[14] = Dose-response, SARS CoV-2 macrodomain HTRF assay, read-out: IC50

Compound: C[C@H]1CC[C@H](CO)N(c2ncnc3[nH]ccc23)C1 (racemic) [AVI-4063]
- Number of isomers bound [1, 3]: 1
- IC50 [2, 4]: 56 µM
- Ki [2, 5]: 52 µM
- Ligand efficiency (binding enery per heavy atom) [2, 6]: 0.33

Compound: C[C@@H]1CCN(c2ncnc3[nH]ccc23)[C@H](CO)C1 (racemic) [AVI-4064]
- Number of isomers bound [1, 3]: 2
- Isomers modeled [1, 7]: RS,SR
- IC50 [2, 4]: 100 µM
- Ki [2, 5]: 93 µM
- Ligand efficiency (binding enery per heavy atom) [2, 6]: 0.31

Compound: Nc1ncnc2c1ncn2[C@@H]1O[C@H](COP(=O)(O)OP(=O)(O)OC[C@H]2O[C@@H](O)[C@H](O)[C@@H]2O)[C@@H](O)[C@H]1O.[Na].[Na] [ADP-ribose, reference compound]
- X-ray crystal structure ([1]; crystal structure with Mac1 determined (TRUE)): TRUE
- Hill slope ([2]; HTRF dose-response fit, Mac1): 1.1

Compound: O=C(O)C1CCCN1S(=O)(=O)c1cccc2nsnc12 (centres unmarked) [AVI-2]
- Number of isomers bound [1, 8]: 1
- inhibition at 200 µM [2, 9]: 23%
- inhibition at 200 µM [2, 10]: 23%

Compound: CC1CC(C(=O)O)CCN1C(=O)c1ccc2c(c1)NC(=O)CO2 (centres unmarked) [AVI-303]
- Number of isomers bound [1, 8]: 1
- inhibition at 200 µM [2, 9]: < 10%
- inhibition at 200 µM [2, 10]: < 10%

Compound: OCC(Cc1ccccc1)Nc1ncnc2[nH]ccc12 (centres unmarked) [AVI-313]
- Number of isomers bound [1, 8]: 2
- Isomers modeled [1, 11]: S,R
- Ligand efficiency (binding enery per heavy atom) [2, 12]: 0.27
- Ki [2, 13]: 120 µM
- IC50 ([2]; read-out: HTRF IC50): 130 µM

Compound: Cc1sc2ncnc(Sc3ccccc3C(=O)O)c2c1C [AVI-317]
- Number of isomers bound [1, 8]: 1
- Isomers modeled [1, 11]: achiral,achiral
- IC50 [2, 14]: > 1000 µM

Compound: Cc1c(C)n(Cc2ccccc2)c2ncnc(N)c12 [AVI-321]
- Number of isomers bound [1, 8]: 1
- Isomers modeled [1, 11]: achiral
- inhibition at 200 µM [2, 9]: 19%
- inhibition at 200 µM [2, 10]: 19%

Compound: CC(CNC(=O)c1ccc2c(c1)CCC(=O)N2)C(=O)O (centres unmarked) [AVI-328]
- Number of isomers bound [1, 8]: 2
- Isomers modeled [1, 11]: R,S
- Ligand efficiency (binding enery per heavy atom) [2, 12]: 0.25
- Ki [2, 13]: 210 µM
- IC50 ([2]; read-out: HTRF IC50): 220 µM

Compound: O=C1CCc2cc(C(=O)N3CC(C(=O)O)CCC34CCCC4)c(F)cc2N1 (centres unmarked) [AVI-338]
- Number of isomers bound [1, 3]: 1
- IC50 [2, 14]: 800 µM
- Ligand efficiency (binding enery per heavy atom) [2, 12]: 0.16
- Ki [2, 13]: 740 µM

Compound: Cc1cc2c(=O)n(CCN3C(=O)c4ccccc4S3(=O)=O)nnc2s1 [AVI-341]
- Number of isomers bound [1, 8]: 1
- Isomers modeled [1, 11]: achiral
- inhibition at 200 µM [2, 9]: 11%
- inhibition at 200 µM [2, 10]: 11%

Compound: CNc1ccc(NS(=O)(=O)c2cc3cccc(C)c3s2)cn1 [AVI-345]
- Number of isomers bound [1, 3]: 1
- Isomers modeled [1, 7]: achiral
- inhibition at 200 µM [2, 9]: 18%
- inhibition at 200 µM [2, 10]: 18%

Compound: CC1CCN(C(=O)c2ccc3c(c2)nc(CO)n3C)CC1C(=O)O (centres unmarked) [AVI-348]
- Number of isomers bound [1, 8]: 1
- inhibition at 200 µM [2, 9]: < 10%
- inhibition at 200 µM [2, 10]: < 10%

Compound: CC(C)(O)[C@H]1CCCN1c1ncnc2[nH]ccc12 [AVI-607, 2-[(2R)-1-{7H-Pyrrolo[2,3-d]pyrimidin-4-yl}pyrrolidin-2-yl]propan-2-ol]
- Number of isomers bound [1, 8]: 1
- Ligand efficiency ([2]; binding energy per heavy atom): 0.41
- Ki [2, 5]: 4.7 µM
- Ligand efficiency (binding enery per heavy atom) [2, 6]: 0.41
- IC50 ([2]; read-out: HTRF IC50): 5.1 µM

Compound: OC[C@@H]1C[C@H](F)CN1c1ncnc2[nH]ccc12 [AVI-609]
- Number of isomers bound [1, 8]: 1
- inhibition at 200 µM ([2]; Single dose, concentration 200 μM, read-out: SARS CoV-2 macrodomain HTRF assay: Average % competition): 52%
- inhibition at 200 µM [2, 10]: 52%

Compound: OC[C@@H]1C[C@H](O)CN1c1ncnc2[nH]ccc12 [AVI-610]
- Number of isomers bound [1, 8]: 1
- IC50 [2, 4]: 160 µM
- Ki [2, 5]: 150 µM
- Ligand efficiency (binding enery per heavy atom) [2, 6]: 0.31

Compound: NC(=O)C1(O)CCN(c2ncnc3[nH]ccc23)C1 (centres unmarked) [AVI-611]
- Number of isomers bound [1, 8]: 1
- Isomers modeled [1, 11]: S,S
- inhibition at 200 µM ([2]; Single dose, concentration 200 μM, read-out: Average % competition): 30%
- inhibition at 200 µM [2, 10]: 30%
